What was measured:
Format in all cases: in vivo, mouse
serum IL-1β = test: Serum IL-1β after LPS challenge in mice (ELISA); conditions: 20 mg/kg compound, LPS 5 mg/kg, four hours
Description: Ten 10-week-old (20±2 gram) female BALB/c mice (Charles River Laboratories, Kingston, N.Y.) were housed in a group of 5 per cage with free access to food and water and were acclimatized for at least one week prior to experimentation. On the day of experiment, mice were weighed and randomly distributed into group of 10 animals of equal mean body weight. Mice were injected i.p. with 200 μL of formulated compound 7e or buffer alone immediately before the i.p. injection of LPS (Escherichia coli 0111:B4, 10 mg/kg or 5 mg/kg body weight) and β-D-galactosamine (50 mg/kg body weight). […] Mouse serum Il-1β and TNF-α were measured by ELISA using a “mouse IL 1β immunoassay or mouse TNF-α immunoassay” kits (R&D System Minneapolis, Minn.) following manufacturer's direction. Serum MIF concentrations in mouse serum were quantified by a sandwich ELISA (ChemiKine MIF Kit, Chemicon, San Diego, Calif.). Samples were analyzed in duplicate, and results were averaged.
An initial control experiment was conducted to determine the base line levels of endogenous MIF in the murine model system (female Balb/c mice), and further to determine the rate and extent of increase in endogenous MIF following treatment with LPS (10 mg/kg). […] The level of MIF in serum was measured by HPLC as described above at 0, 2, 5 and 6 hours following LPS/galactosamine treatment. […]

DBA/1LacJ mice = test: Collagen induced arthritis model, paw thickness; conditions: day 74, eight doses at 0.4 mg/dose; vehicle 1.99 mm; p<0.05
Description: Twenty DBA/1LacJ mice, age 10–12 weeks, were immunized on day 0 at base of the tail with bovine collagen type II (CII 100 μg) emulsified in Freunds complete adjuvant (FCA; GibcoBRL). On day 7, a second dose of collagen was administrated via the same route (emulsified in Freunds incomplete adjuvant). On Day 14 mice were injected subcutaneously with 100 mg of LPS (055:B5). On day 70 mice were injected 40 μg LPS (0111:B4) intraperitoneally. Groups were divided according paw thickness, which was measured by a caliper, after randomization, to create a balanced starting group. Compound in buffer was given to mice on days 71, 72, 73, and 74 (total eight doses at 0.4 mg/dose, approximately 20 mg/kg of body weight). Mice were then examined on day 74 by two observers for paw thickness. FIG. 14 sets forth the experimental timeline. In this experiment, subsided mice (decline of full-blown arthritis) were treated with a final i.p. injection of LPS on day 70 to stimulate cytokine production as well as acute inflammation.

serum TNF-α = test: Collagen induced arthritis model, serum TNF-α (ELISA); conditions: day 74, compared to untreated CIA samples
Description: In another experiment, fifteen DBA/1J mice, age 10–12 weeks were immunized on day 0 at the base of the tail with bovine collagen type II (CII 100 μg), emulsified in Freunds complete adjuvant (FCA; GibcoBRL). On day 21, a second dose of collagen was administered via the same route, emulsified in Freunds incomplete adjuvant. On day 28 the mice were injected subcutaneously with 100 μg of LPS (055:B5). On day 71 the mice were injected i.p. with 40 μg LPS (0111:B4). Groups and treatment protocol were the same as described as above. On day 74 blood samples were collected and cytokines were measured.

Cn1c(=O)c([N+](=O)[O-])c(N2CCN(C(=O)c3ccco3)CC2)c2ccccc21 [compound 7e]
serum IL-1β level (serum IL-1β): reductions
edema of the paw (paw thickness) (DBA/1LacJ mice): 1.87 mm
serum TNF-α levels (serum TNF-α): more significant inhibition of serum TNF-α levels
